Consider ten molecules from patent US20110053923A1, “CHEMICAL COMPOUNDS 610” (AstraZeneca, priority 2008, published 2011).

One assay concerns HT29 cells. The experiment in a line: Cellular SRB assay (Test (d)), potentiation of carboplatin. The assay is classed as cell-based. Particulars: for IC50: geometric mean. On the procedure:
(d) Cellular—SRB Assay The potentiation factor (PF50) for compounds is a measure of the fold increase in effect of a chemotherapeutic agent, when used in combination with an ATR inhibitor. Specifically, this is calculated as a ratio of the IC50 of control cell growth in the presence of a chemotherapeutic agent, typically carboplatin, divided by the IC50 of cell growth in the presence of this agent and the ATR inhibitor of interest. For this purpose, HT29 cells were seeded at the appropriate density to ensure exponential growth throughout the time of the assay (typically 1000-1500 cells) in each well of a 96-well plate, in a volume of 80 μl and incubated overnight at 37° C. Subsequently, cells were dosed with either DMSO vehicle, or treated with test compounds at fixed concentrations (typically 1, 0.3 & 0.1 μM). Following a one hour incubation at 37° C., the cells were further treated with a 10 point dose response of the chemotherapeutic agent, based on it's known sensitivity (typically 30-0.001 ug/ml for carboplatin). Cells were left to grow for 5 days at 37° C., after which time cell growth was assessed using the sulforhodamine B (SRB) assay (Skehan, P et al, 1990 New colorimetric cytotoxic assay for anticancer-drug screening. J. Natl. Cancer Inst. 82, 1107-1112.). Specifically, the media was removed and cells fixed with 100 μl of ice cold 10% (w/v) trichloroacetic acid. The plates were then incubated at 4° C. for 20 minutes prior to washing 4 times with water. Each well was then stained with 100 μL of 0.4% (w/v) SRB in 1% acetic acid for 20 minutes before a further 4 washes with 1% acetic acid. Plates were then dried for 2 hours at room temperature and the dye was solubilized by the addition of 100 μL Tris Base pH 8.5 into each well. Plates were shaken before measuring optical density at 564 nm (OD564). In order to calculate the PF50, the OD564 values obtained for the dose-response curve of chemotherapeutic agent were expressed as a percentage of the value obtained from cells treated with vehicle alone. Similarly, to act as a control for inclusion of the ATR inhibitor, values from the chemotherapeutic agent tested in combination with a fixed ATR inhibitor concentration were expressed as a percentage of the value obtained from cells treated with the corresponding concentration of ATR inhibitor alone. From these internally-controlled curves, IC50 values were calculated and the PF50 was determined as the ratio of these values, as described above. Compounds are compared using the PF50 value at concentrations of ATR inhibitor that show minimal growth inhibition on their own.
Background: The SRB assay estimates cell density from bound dye.

A further assay concerns the target T1, ATR (Homo sapiens, UniProt Q13535).
T1 construct: obtained from HeLa nuclear extract (CIL Biotech, Mons, Belgium) by immunoprecipitation with rabbit polyclonal antiserum raised to amino acids 400-480 of ATR; host or cells: HeLa nuclear extract
The assay is described as follows: Enzyme Assay - ATR (Test (a)).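 Also: kinase activity of bead-bound ATR toward a GST-p53 N-terminal fragment substrate, 1 h at 37 °C, read by chemiluminescence, with inhibitor-free wells as control.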 The assay is classed as biochemical. The conditions noted are these: ATR immunoprecipitated from HeLa nuclear extract; 3 μM ATP; average of individual tests; read-out: ATR average IC50.

For a further assay, the target named is mTOR (Homo sapiens, UniProt P42345). The assay is described as follows: Enzyme - mTOR Kinase Assay (Echo).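 Also: enzyme expressed in HEK293 cells, 2 h incubation at room temperature, read-out is phosphorylation of a biotinylated peptide substrate detected with an anti-phospho p70 S6 Kinase (T389) antibody, inhibition lowers signal.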 Format: biochemical. The conditions noted are these: recombinant FLAG-tagged mTOR (1362-2549); AlphaScreen; ATP 20 μM. On the technique in general: Bead proximity is the source of the signal in Alpha formats.

Structures are written as SMILES. Where two headings read alike, the source gives them in different places.

T1 sequence (Q13535 whole entry, the tested form may be a part): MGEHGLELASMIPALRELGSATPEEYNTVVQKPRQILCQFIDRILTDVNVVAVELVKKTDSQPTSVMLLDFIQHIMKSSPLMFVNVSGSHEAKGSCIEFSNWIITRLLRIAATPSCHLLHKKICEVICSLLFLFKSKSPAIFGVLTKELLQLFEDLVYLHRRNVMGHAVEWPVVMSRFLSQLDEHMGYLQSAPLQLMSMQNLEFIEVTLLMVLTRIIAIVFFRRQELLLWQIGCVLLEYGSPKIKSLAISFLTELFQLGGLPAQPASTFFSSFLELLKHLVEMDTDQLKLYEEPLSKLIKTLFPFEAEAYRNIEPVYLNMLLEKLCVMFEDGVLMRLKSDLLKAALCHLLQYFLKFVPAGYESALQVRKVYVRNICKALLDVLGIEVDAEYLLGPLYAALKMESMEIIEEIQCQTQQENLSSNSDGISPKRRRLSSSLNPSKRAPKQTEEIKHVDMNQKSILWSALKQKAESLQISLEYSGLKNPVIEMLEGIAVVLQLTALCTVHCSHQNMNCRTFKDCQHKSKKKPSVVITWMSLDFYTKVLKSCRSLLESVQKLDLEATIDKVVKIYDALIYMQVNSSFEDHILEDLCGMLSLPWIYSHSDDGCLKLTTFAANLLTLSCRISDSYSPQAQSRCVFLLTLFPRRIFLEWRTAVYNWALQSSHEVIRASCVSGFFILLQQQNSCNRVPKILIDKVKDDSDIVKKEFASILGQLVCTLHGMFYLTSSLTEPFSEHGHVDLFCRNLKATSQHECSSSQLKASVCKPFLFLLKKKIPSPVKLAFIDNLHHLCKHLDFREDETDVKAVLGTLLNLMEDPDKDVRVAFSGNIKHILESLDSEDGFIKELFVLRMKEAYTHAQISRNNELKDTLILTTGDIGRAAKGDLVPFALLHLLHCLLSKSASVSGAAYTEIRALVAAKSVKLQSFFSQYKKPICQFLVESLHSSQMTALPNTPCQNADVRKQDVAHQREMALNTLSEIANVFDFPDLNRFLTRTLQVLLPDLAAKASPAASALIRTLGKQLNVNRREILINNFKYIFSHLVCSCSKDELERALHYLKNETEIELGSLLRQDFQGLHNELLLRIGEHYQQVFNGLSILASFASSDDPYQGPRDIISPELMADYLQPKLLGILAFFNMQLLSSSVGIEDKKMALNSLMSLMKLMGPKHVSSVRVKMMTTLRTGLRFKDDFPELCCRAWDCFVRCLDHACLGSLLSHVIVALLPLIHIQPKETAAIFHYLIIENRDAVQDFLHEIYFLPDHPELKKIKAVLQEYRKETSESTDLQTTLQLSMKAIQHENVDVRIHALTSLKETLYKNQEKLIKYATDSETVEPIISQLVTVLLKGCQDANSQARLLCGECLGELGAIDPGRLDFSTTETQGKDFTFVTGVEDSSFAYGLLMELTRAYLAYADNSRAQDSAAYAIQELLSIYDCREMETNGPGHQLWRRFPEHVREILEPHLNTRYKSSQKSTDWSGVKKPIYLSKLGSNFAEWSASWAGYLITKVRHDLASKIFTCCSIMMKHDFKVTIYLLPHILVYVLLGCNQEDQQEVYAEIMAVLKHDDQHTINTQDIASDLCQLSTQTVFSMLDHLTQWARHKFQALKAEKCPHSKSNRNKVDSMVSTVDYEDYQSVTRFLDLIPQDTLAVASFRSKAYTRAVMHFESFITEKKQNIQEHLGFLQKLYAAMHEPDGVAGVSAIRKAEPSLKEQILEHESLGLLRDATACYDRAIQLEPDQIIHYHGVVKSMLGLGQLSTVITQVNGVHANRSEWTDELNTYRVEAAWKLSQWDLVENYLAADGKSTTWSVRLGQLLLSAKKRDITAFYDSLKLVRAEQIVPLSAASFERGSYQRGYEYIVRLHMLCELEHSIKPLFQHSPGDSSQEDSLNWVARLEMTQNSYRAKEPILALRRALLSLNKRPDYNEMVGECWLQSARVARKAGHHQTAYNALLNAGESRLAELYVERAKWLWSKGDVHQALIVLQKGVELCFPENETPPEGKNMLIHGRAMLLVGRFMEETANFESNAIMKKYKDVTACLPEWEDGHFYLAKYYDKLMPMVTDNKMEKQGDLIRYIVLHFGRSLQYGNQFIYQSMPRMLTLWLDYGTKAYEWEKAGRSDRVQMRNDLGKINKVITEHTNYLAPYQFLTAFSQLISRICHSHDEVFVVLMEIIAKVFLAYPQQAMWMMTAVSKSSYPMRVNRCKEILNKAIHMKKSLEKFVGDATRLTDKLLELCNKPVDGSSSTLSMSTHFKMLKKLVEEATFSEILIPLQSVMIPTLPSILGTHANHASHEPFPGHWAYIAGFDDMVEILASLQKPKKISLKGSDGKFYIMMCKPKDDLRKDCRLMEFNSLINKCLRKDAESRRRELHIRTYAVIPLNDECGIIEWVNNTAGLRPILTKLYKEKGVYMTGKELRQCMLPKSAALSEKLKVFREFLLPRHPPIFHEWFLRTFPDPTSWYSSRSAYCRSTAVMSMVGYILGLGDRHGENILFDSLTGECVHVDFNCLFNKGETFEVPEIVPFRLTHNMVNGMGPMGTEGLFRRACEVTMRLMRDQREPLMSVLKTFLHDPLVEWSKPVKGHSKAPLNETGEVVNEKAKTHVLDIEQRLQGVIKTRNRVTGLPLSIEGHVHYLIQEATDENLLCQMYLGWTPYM
T1 sequence (Q8WXE1 whole entry partner, the tested form may be a part): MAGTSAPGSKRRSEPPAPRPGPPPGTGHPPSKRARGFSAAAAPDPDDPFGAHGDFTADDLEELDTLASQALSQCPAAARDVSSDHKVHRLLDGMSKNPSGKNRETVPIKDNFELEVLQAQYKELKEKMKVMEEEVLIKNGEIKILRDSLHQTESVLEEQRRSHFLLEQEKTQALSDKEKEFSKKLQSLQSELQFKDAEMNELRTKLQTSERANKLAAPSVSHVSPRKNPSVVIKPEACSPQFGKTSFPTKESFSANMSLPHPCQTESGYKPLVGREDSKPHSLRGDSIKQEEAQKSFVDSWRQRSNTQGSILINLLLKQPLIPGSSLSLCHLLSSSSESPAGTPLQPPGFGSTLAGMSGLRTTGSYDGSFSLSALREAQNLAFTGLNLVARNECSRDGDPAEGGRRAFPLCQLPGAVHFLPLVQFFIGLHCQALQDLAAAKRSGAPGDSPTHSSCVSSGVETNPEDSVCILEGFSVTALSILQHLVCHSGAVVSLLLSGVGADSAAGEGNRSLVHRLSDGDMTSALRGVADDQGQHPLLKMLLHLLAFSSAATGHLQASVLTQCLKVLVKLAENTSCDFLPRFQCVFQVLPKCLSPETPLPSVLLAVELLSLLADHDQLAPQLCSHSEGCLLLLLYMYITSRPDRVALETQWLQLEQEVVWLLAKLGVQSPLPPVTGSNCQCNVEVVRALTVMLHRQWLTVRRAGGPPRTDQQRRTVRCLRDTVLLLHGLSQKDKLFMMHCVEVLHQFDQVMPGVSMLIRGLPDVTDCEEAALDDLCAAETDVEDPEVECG
Sequence of mTOR (P42345 1362-2549): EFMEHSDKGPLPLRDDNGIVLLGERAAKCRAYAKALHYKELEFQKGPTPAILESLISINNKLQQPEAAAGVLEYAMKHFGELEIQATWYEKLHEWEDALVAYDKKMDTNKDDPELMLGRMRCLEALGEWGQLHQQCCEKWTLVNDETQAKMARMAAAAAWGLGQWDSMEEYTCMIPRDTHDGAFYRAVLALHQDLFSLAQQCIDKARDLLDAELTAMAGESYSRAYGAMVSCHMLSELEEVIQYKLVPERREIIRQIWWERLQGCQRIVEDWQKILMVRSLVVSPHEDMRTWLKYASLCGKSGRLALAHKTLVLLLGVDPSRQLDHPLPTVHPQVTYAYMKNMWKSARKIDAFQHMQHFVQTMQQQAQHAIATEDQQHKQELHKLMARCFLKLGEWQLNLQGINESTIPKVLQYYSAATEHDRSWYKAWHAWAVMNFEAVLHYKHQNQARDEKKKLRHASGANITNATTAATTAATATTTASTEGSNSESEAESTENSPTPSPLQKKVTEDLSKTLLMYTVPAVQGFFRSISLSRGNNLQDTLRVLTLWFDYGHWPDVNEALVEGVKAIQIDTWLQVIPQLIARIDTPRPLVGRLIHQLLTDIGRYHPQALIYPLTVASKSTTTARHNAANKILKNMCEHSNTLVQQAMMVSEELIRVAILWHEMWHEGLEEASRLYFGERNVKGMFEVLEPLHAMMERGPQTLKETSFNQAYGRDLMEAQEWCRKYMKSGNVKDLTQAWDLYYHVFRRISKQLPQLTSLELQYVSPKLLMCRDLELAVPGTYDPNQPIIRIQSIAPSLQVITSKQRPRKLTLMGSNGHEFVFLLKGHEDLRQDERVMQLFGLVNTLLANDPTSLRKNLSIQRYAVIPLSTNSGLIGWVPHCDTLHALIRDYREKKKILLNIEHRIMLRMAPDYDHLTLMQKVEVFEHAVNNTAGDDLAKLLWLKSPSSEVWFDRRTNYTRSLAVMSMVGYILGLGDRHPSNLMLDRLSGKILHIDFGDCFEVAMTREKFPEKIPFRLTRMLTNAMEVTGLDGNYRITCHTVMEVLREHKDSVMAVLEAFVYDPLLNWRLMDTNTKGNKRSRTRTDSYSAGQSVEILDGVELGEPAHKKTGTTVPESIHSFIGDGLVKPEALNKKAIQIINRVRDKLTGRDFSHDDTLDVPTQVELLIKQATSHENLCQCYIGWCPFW

Consider `C[C@@H]1COCCN1c1cc(C2(S(C)(=O)=O)CC2)nc(-c2cccc3[nH]ccc23)n1` [Example 3.01, 4-{4-[(3R)-3-Methylmorpholin-4-yl]-6-[1-(methylsulfonyl)cyclopropyl]pyrimidin-2-yl}-1H-indole], for which the IC50 in the assay with HT29 cells (Homo sapiens, HT-29, 120 h, Carboplatin + 0.1 uM Example 3.01, 5 days growth, read-out: IC50) amounted to 1.96 µg/mL; in the assay with HT29 cells (Homo sapiens, HT-29, 120 h, Carboplatin + 0.3 uM Example 3.01, 5 days growth, read-out: IC50), 0.39 µg/mL. Besides, the results for the PF50 with HT29 cells (potentiation factor of Carboplatin by 0.1 uM Example 3.01 (ratio of IC50 values)) and in the assay on HT29 cells (potentiation factor of Carboplatin by 0.3 uM Example 3.01 (ratio of IC50 values)) were 2.02 and 10.08, respectively.

Turning to `N.N.O=C([O-])C1(C(=O)[O-])CCC1.[Pt+2]` [Carboplatin, reference compound], the IC50 in the assay on HT29 cells (Carboplatin alone, 5 days growth) amounted to 3.97 µg/mL.

`COc1cc(-c2nc(N3CCOC[C@H]3C)cc(C3(S(C)(=O)=O)CC3)n2)c2cc[nH]c2c1` [Example 3.07, 6-methoxy-4-{4-[(3R)-3-methylmorphohn-4-yl]-6-[1-(methylsulfonyl)cyclopropyl]pyrimidin-2-yl}-1H-indole]: the IC50 turned out to be 12.4 nM at ATR and 24.1 nM at mTOR.

As for `CS(=O)(=O)C1(c2cc(N3CCOCC3)nc(-c3cccc4[nH]ccc34)n2)CCNCC1` [Example 1.08, 4-{4-[4-(Methylsulfonyl)piperidin-4-yl]-6-morpholin-4-ylpyrimidin-2-yl}-1H-indole], the IC50 worked out at 9.44 nM at ATR and 231 nM on mTOR.

In the case of `CCS(=O)(=O)C1(c2cc(N3CCOC[C@H]3C)nc(-c3cccc4[nH]ccc34)n2)CC1` [Example 3.20, 4-{4-[1-(Ethylsulfonyl)cyclopropyl]-6-[(3R)-3-methylmorpholin-4-yl]pyrimidin-2-yl}-1H-indole], the results for the IC50 at ATR and at mTOR were 2.5 nM and 71.1 nM, respectively.

Turning to `Cc1cc(-c2nc(N3CCOCC3)cc(C3(S(C)(=O)=O)CC3)n2)c2cc[nH]c2c1` [Example 1.02, 6-Methyl-4-{4-[1-(methylsulfonyl)cyclopropyl]-6-morpholin-4-ylpyrimidin-2-yl}-1H-indole], the IC50 at ATR is 7.67 nM; at mTOR, 110 nM.

On to `C[C@@H]1COCCN1c1cc(C2(S(=O)(=O)C3CC3)CC2)nc(-c2cccc3[nH]ccc23)n1` [Example 3.17, 4-{4-[1-(Cyclopropylsulfonyl)cyclopropyl]-6-[(3R)-3-methylmorpholin-4-yl]pyrimidin-2-yl}-1H-indole], for which the values for the half-inhibitory concentration (IC50) at ATR and on mTOR were 2.26 nM and 97.8 nM, respectively.

As for `Cc1cc2c(-c3nc(N4CCOC[C@H]4C)cc(C4(S(C)(=O)=O)CCOCC4)n3)cccc2[nH]1` [Example 3.10, 2-Methyl-4-{4-[(3R)-3-methylmorpholin-4-yl]-6-[4-(methylsulfonyl)tetrahydro-2H-pyran-4-yl]pyrimidin-2-yl}-1H-indole], the IC50 on ATR is 3.58 nM; on mTOR, 145 nM.

For the molecule `CC(C)S(=O)(=O)C1(c2cc(N3CCOC[C@H]3C)nc(-c3cccc4[nH]ccc34)n2)CCNCC1` [Example 3.25, 4-(4-{4-[(1-Methylethyl)sulfonyl]piperidin-4-yl}-6-[(3R)-3-methylmorpholin-4-yl]pyrimidin-2-yl)-1H-indole], the IC50 on ATR stood at 20.6 nM; on mTOR, 4240 nM.

On to `Cc1cc(-c2nc(N3CCOC[C@H]3C)cc(C3(S(C)(=O)=O)CC3)n2)c2cc[nH]c2c1` [Example 3.02, 6-Methyl-4-{4-[(3R)-3-methylmorpholin-4-yl]-6-[1-(methylsulfonyl)cyclopropyl]pyrimidin-2-yl}-1H-indole], for which the figures for the IC50 at ATR and at mTOR were 6.67 nM and 97.1 nM, respectively.

The IC50 is the concentration that gives 50% inhibition.
